In patent publication US20050025809A1, “Poly-4-hydroxybutyrate matrices for sustained drug delivery” (Tepha, Inc., priority 2003, published 2005):
Like-named read-outs stand apart in the source and are kept apart here.

Key:
[1] = Drug release from PHA3444 rods in PBS; type: physicochemical; details: PHA3444-34%:drug 2:1 rods
Excerpt: The paste was then introduced into a mold measuring 150×5×5 mm, and left to dry at ambient temperature.

[2] = PHA4400 loaded 10:1, PBS pH 7.4, 37° C.

- burst of release [1]: No burst of release was observed
- average cumulative release ([1]; PBS pH 7.4, 37° C., at 17 days): ~23%
- average cumulative release (PHA4400:drug 2:1 rods, PBS pH 7.4, 37° C., at 11 days): ~9%
- burst of release [2]: no burst
- total release (PHA4400 loaded 10:1, in fifteen days): 17%
Compound: CN(C)[C@@H]1C(O)=C(C(N)=O)C(=O)[C@@]2(O)C(O)=C3C(=O)c4c(O)cccc4[C@@](C)(O)[C@H]3C[C@@H]12 [TCN, Tetracycline (neutral)]
- release order [2]: almost perfect zero order release after the first hour
